In article PMC7736581, “Activation of the IRE1 RNase through remodeling of the kinase front pocket by ATP-competitive ligands” (Nature Communications, 2020):

Columns and labels:
Assay in all cases: biochemical
Design in all cases: Invitrogen kinase panel: Z'Lyte activity (ATP at Km) or LanthaScreen competitive ATP-site binding, percent inhibition
B-Raf = molecular target: T1, B-Raf (Homo sapiens, UniProt P15056)
T1 construct: gene BRAF

BTK = BTK (Homo sapiens, UniProt Q06187)
CDK5/p25 = molecular target: T2, CDK5/p25 (Homo sapiens, UniProt Q00535)
T2 construct: p25
T2 sequence (Q00535 whole entry): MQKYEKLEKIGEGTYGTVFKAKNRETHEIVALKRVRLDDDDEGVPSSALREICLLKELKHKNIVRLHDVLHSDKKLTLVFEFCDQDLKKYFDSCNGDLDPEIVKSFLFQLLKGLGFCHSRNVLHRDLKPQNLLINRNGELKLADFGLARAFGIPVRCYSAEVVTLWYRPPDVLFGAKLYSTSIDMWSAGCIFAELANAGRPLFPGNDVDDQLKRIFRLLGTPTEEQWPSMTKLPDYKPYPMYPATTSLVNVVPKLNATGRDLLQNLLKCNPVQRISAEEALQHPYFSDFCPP
T2 sequence (Q15078 whole entry partner): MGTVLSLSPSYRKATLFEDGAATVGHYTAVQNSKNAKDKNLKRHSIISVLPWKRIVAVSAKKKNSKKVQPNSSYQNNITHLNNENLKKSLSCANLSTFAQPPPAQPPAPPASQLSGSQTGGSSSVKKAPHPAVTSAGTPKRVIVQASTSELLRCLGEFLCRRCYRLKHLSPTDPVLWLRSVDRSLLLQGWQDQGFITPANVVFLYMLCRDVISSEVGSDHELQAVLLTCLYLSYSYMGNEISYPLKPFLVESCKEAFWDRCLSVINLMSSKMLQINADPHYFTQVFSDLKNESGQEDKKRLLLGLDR

KDR = KDR (Homo sapiens, UniProt P35968)
NEK1 = molecular target: T3, NEK1 (Homo sapiens, UniProt Q96PY6)
T3 sequence (Q96PY6 1-1258): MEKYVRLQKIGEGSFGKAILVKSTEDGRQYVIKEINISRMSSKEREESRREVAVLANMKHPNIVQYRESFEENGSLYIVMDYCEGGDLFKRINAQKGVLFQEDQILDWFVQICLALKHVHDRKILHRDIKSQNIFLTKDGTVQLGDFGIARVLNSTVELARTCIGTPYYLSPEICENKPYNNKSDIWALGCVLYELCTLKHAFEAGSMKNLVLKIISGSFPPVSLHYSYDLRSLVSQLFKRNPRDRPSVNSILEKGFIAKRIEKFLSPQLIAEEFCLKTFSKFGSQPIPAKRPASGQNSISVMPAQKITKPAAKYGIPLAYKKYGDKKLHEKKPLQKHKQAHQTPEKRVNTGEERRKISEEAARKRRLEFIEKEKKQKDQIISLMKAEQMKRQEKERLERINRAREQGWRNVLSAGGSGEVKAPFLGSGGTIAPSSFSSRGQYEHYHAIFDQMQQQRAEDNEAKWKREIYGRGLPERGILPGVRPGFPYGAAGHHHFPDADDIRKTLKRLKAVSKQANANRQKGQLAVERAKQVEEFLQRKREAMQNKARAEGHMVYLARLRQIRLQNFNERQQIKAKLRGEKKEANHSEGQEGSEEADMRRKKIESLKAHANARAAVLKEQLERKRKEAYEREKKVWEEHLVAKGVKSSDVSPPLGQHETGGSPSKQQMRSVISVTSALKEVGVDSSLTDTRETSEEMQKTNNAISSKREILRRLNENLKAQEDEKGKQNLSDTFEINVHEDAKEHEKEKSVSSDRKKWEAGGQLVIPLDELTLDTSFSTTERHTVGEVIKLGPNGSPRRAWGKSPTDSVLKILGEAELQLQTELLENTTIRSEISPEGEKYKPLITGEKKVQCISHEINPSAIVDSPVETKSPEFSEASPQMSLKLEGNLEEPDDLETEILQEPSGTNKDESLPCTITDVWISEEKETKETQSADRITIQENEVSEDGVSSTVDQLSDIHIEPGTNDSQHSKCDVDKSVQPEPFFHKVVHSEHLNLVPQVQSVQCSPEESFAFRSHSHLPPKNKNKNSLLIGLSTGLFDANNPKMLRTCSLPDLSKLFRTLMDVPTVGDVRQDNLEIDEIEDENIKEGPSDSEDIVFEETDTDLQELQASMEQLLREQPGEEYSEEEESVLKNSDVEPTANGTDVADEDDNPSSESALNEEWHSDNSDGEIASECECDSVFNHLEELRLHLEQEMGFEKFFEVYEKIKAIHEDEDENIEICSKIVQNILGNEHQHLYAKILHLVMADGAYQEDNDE

PAK1 = PAK1 (Homo sapiens, UniProt Q13153)
PAK1, sequence (Q13153 whole entry): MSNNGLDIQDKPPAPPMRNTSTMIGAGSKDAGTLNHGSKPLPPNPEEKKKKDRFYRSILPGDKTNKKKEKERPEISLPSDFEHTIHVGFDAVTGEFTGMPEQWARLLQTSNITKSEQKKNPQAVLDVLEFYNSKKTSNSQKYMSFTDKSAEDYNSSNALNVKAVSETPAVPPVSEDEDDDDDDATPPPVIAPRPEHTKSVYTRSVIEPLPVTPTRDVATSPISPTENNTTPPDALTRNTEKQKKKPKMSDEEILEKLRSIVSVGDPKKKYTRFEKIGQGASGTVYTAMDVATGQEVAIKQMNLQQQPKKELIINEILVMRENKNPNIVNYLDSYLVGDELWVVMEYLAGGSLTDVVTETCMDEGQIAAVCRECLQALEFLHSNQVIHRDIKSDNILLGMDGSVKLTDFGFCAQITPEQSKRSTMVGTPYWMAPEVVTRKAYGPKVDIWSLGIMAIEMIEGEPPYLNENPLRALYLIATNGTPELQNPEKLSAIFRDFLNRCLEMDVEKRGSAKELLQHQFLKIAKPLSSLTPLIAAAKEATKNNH

PKC_beta1 = molecular target: T4, PKC_beta1 (Homo sapiens, UniProt P05771)
T4 construct: gene PRKCB; isoform beta1
T4 sequence (P05771 whole entry, canonical isoform): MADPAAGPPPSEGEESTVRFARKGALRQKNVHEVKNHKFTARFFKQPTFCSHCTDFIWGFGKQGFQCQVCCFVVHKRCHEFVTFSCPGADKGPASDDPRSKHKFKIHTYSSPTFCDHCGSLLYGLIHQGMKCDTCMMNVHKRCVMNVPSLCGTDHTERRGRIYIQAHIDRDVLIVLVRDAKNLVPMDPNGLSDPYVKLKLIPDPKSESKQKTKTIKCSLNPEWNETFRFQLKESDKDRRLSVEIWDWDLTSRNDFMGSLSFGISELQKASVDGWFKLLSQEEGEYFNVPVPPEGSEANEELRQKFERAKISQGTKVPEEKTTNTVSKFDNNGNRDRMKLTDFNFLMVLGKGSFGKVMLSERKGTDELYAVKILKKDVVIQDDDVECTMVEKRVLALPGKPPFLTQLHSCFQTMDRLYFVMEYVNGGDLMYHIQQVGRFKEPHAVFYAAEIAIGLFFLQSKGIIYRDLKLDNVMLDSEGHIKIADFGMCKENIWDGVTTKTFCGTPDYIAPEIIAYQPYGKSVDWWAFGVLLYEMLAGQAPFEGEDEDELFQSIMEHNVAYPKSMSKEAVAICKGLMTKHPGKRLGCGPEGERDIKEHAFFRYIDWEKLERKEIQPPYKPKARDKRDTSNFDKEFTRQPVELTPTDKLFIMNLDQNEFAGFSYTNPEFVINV

PKC_zeta = molecular target: T5, PKC_zeta (Homo sapiens, UniProt Q05513)
T5 construct: gene PRKCZ
T5 sequence (Q05513 1-592): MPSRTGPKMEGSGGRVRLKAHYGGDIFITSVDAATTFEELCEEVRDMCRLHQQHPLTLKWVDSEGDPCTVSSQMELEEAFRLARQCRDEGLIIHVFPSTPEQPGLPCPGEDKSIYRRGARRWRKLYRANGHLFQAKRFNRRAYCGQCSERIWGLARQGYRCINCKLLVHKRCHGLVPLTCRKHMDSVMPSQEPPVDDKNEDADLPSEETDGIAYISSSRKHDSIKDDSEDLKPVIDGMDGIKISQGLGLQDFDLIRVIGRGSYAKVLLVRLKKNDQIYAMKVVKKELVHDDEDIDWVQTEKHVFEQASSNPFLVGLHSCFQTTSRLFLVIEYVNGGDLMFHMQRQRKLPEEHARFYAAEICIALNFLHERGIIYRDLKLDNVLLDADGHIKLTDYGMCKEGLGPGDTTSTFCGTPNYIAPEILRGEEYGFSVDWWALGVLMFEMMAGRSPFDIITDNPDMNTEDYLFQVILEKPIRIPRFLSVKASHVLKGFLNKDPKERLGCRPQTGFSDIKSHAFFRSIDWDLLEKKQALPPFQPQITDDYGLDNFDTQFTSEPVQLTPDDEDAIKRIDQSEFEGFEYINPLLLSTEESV

RSK2 = molecular target: T6, RSK2 (Homo sapiens, UniProt P51812)
T6 construct: gene RPS6KA3
T6 sequence (P51812 whole entry): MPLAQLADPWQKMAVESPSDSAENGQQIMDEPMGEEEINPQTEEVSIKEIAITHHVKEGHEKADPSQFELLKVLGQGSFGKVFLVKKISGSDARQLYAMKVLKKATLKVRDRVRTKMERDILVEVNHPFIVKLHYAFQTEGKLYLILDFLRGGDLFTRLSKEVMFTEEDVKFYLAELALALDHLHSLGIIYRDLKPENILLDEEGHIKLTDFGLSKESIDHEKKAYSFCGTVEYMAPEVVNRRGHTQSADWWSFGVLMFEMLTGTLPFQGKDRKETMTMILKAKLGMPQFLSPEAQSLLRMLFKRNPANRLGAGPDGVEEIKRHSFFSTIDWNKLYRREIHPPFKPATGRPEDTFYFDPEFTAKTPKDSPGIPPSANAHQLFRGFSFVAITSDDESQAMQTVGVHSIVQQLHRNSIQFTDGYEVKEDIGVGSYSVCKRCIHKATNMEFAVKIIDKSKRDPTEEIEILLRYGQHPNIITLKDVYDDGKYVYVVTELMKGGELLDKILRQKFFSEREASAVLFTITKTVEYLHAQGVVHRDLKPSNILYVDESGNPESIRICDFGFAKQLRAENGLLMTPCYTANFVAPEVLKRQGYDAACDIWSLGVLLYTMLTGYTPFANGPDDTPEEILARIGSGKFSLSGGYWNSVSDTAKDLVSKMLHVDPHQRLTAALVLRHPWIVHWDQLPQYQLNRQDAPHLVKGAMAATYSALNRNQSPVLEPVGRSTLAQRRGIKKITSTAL

SLK = SLK (Homo sapiens, UniProt Q9H2G2)
SLK, sequence (Q9H2G2 whole entry): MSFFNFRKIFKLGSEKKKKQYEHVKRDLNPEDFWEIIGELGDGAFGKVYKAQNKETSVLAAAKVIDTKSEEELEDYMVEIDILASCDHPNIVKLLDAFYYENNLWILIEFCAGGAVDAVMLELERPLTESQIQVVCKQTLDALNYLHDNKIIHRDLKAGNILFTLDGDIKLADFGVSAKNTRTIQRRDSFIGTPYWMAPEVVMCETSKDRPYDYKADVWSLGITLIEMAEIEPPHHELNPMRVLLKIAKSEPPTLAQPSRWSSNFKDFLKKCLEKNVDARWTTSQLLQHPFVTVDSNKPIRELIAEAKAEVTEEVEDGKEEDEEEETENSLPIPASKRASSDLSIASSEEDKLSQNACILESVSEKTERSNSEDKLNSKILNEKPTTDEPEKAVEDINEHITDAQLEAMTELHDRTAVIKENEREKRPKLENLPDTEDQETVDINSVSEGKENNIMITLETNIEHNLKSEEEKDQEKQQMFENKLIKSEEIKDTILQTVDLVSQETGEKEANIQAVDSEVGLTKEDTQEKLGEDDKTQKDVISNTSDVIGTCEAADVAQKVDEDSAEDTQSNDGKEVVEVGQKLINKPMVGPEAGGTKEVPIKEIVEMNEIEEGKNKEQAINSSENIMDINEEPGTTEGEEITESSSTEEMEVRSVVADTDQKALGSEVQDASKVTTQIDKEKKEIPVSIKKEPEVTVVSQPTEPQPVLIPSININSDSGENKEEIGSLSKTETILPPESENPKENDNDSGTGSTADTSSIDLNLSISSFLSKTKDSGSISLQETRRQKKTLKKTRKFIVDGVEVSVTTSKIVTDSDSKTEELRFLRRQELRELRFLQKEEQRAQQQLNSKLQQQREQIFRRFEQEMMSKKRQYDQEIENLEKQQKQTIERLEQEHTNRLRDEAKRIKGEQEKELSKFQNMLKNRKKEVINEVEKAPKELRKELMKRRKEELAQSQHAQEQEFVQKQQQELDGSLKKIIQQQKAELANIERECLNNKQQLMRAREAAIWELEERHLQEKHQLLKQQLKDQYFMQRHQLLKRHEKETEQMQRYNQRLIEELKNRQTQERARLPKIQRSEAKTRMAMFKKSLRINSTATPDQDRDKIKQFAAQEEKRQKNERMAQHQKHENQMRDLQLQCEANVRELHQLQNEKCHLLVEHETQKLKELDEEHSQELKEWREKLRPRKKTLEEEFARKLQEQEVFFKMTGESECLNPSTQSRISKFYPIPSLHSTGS

TrkA = molecular target: T7, TrkA (Homo sapiens, UniProt P04629)
T7 construct: gene NTRK1

T1 sequence (P15056 whole entry): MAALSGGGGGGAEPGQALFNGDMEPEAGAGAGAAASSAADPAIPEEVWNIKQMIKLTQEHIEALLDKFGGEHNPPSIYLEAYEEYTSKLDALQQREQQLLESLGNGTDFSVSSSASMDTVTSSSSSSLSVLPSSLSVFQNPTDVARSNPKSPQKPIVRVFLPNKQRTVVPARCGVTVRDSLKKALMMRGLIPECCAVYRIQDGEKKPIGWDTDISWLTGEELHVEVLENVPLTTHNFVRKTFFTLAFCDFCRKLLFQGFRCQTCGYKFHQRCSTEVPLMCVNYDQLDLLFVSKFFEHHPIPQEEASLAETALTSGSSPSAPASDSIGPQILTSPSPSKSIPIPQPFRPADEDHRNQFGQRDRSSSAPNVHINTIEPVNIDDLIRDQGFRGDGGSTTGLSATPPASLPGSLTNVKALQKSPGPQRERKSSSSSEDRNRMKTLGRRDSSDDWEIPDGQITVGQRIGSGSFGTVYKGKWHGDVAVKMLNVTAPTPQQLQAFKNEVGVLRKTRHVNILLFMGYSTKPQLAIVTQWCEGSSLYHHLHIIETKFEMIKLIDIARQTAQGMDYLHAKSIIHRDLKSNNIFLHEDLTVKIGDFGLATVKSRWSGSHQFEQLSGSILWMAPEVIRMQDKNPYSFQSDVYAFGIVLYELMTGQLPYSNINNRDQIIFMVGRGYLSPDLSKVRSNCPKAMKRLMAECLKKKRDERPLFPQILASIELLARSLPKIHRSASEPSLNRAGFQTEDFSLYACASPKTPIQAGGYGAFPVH

inhibition at 1 µM (B-Raf) [%] | inhibition at 1 µM (BTK) [%] | inhibition at 1 µM (CDK5/p25) [%] | inhibition at 1 µM (KDR) [%] | inhibition at 1 µM (NEK1) [%] | inhibition at 1 µM (PAK1) [%] | inhibition at 1 µM (PKC_beta1) [%] | inhibition at 1 µM (PKC_zeta) [%] | inhibition at 1 µM (RSK2) [%] | inhibition at 1 µM (SLK) [%] | inhibition at 1 µM (TrkA) [%] | SMILES
5.5 | 5.5 | 4 | -4 | 3 | 5 | 5.5 | 18.5 | 0 | 1.5 | 10.5 | CC#CC(=O)Nc1cccc2c(Oc3ncccc3-c3ccnc(N[C@H]4CCCNC4)n3)c(C)ccc12 [G-7658]
81.2 | 35.9 | 100 | 96.3 | 90.2 | 85.7 | 66.7 | 34.2 | 98 | 96.9 | 91.2 | O=c1cc(-c2n[nH]c3ncc(-c4c(F)cccc4F)cc23)nc(N2CCC(O)CC2)[nH]1 [G-9807]

SMILES | inhibition at 1 µM (B-Raf) [%] | inhibition at 1 µM (BTK) [%] | inhibition at 1 µM (CDK5/p25) [%] | inhibition at 1 µM (KDR) [%] | inhibition at 1 µM (NEK1) [%] | inhibition at 1 µM (PAK1) [%] | inhibition at 1 µM (PKC_beta1) [%] | inhibition at 1 µM (PKC_zeta) [%] | inhibition at 1 µM (RSK2) [%] | inhibition at 1 µM (SLK) [%] | inhibition at 1 µM (TrkA) [%]
CCOC(=O)Nc1cccc2c(Oc3ncccc3-c3ccnc(N[C@H]4CCCNC4)n3)c(C)ccc12 [G-1749] | 9.5 | 1.5 | 3.5 | -18 | 0.5 | 7 | 5.5 | 12 | 3.5 | 10 | -4
